molecular target: T1, Adenosine receptor A1 (Homo sapiens) (UniProt P30542); assay: Displacement of [3H]DPCPX from human adenosine A1 receptor expressed in CHO cells at 10 uM after 120 mins by scintillation counting; format: cell-based
T1 sequence (whole entry): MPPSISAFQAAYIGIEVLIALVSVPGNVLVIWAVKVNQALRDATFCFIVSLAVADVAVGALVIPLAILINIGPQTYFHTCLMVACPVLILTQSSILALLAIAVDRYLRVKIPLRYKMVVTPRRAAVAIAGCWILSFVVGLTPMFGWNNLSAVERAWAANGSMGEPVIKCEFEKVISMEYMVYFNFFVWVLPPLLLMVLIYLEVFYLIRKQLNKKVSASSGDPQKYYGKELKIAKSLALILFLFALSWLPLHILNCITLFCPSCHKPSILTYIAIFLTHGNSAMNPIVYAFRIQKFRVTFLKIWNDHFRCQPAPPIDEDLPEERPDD

SMILES | inhibition
Cc1sc(N)c(C(=O)c2ccc(Cl)cc2)c1CN1CCN(Cc2ccccc2)CC1 | < 12%
Nc1sc(-c2ccccc2)c(CN2CCN(c3ccc(C(F)(F)F)cc3)CC2)c1C(=O)c1ccc(Cl)cc1 | < 12%
Nc1sc(-c2ccc(Cl)cc2)c(CN2CCN(c3ccc(Cl)cc3)CC2)c1C(=O)c1ccc(Cl)cc1 | < 12%
Nc1sc(-c2ccccc2)c(CN2CCN(c3ccc(F)cc3)CC2)c1C(=O)c1ccc(Cl)cc1 | < 12%
Cc1sc(N)c(C(=O)c2ccc(Cl)cc2)c1CN1CCN(c2ccc(Cl)c(C(F)(F)F)c2)CC1 | < 12%
Nc1sc(-c2ccccc2)c(CN2CCN(c3ccccc3C(F)(F)F)CC2)c1C(=O)c1ccc(Cl)cc1 | < 12%
Nc1sc(-c2ccccc2)c(CN2CCN(c3ccc(OC(F)(F)F)cc3)CC2)c1C(=O)c1ccc(Cl)cc1 | < 12%
Cc1sc(N)c(C(=O)c2ccc(Cl)cc2)c1CN1CCN(c2ccc(C(F)(F)F)cc2)CC1 | < 12%
Nc1sc(-c2ccccc2)c(CN2CCN(c3ccc(Cl)c(Cl)c3)CC2)c1C(=O)c1ccc(Cl)cc1 | < 12%
Cc1sc(N)c(C(=O)c2ccc(Cl)cc2)c1CN1CCN(c2cccc(C(F)(F)F)c2)CC1 | < 12%
Nc1sc(-c2ccc(F)cc2)c(CN2CCN(c3ccc(F)cc3)CC2)c1C(=O)c1ccc(Cl)cc1 | < 12%
Cc1sc(N)c(C(=O)c2ccc(Cl)cc2)c1CN1CCN(c2ccc(Br)cc2)CC1 | < 12%
Nc1sc(-c2ccc(Cl)cc2)c(CN2CCN(c3ccccc3C(F)(F)F)CC2)c1C(=O)c1ccc(Cl)cc1 | < 12%

molecular target: T2, Adenosine receptor A3 (Homo sapiens) (UniProt P0DMS8); assay: Displacement of [3H]MRE-3008-F20 from human adenosine A3 receptor expressed in CHO cells at 10 uM after 120 mins by scintillation counting; format: cell-based
T2 sequence (whole entry): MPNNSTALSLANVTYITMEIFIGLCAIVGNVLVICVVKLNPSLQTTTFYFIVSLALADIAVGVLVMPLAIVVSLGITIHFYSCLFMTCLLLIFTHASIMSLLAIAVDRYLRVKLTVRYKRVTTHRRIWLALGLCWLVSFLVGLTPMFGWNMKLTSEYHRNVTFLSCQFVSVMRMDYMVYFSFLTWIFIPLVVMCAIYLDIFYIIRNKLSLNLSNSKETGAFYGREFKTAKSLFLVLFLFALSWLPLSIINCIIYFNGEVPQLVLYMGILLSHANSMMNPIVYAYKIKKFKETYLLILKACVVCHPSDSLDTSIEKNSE

SMILES | inhibition
Cc1sc(N)c(C(=O)c2ccc(Cl)cc2)c1CN1CCN(Cc2ccccc2)CC1 | < 12%
Nc1sc(-c2ccccc2)c(CN2CCN(c3ccc(C(F)(F)F)cc3)CC2)c1C(=O)c1ccc(Cl)cc1 | < 12%
Nc1sc(-c2ccc(Cl)cc2)c(CN2CCN(c3ccc(Cl)cc3)CC2)c1C(=O)c1ccc(Cl)cc1 | < 12%
Nc1sc(-c2ccccc2)c(CN2CCN(c3ccc(F)cc3)CC2)c1C(=O)c1ccc(Cl)cc1 | < 12%
Cc1sc(N)c(C(=O)c2ccc(Cl)cc2)c1CN1CCN(c2ccc(Cl)c(C(F)(F)F)c2)CC1 | < 12%
Nc1sc(-c2ccccc2)c(CN2CCN(c3ccccc3C(F)(F)F)CC2)c1C(=O)c1ccc(Cl)cc1 | < 12%
Nc1sc(-c2ccccc2)c(CN2CCN(c3ccc(OC(F)(F)F)cc3)CC2)c1C(=O)c1ccc(Cl)cc1 | < 12%
Cc1sc(N)c(C(=O)c2ccc(Cl)cc2)c1CN1CCN(c2ccc(C(F)(F)F)cc2)CC1 | < 12%
Nc1sc(-c2ccccc2)c(CN2CCN(c3ccc(Cl)c(Cl)c3)CC2)c1C(=O)c1ccc(Cl)cc1 | < 12%
Cc1sc(N)c(C(=O)c2ccc(Cl)cc2)c1CN1CCN(c2cccc(C(F)(F)F)c2)CC1 | < 12%
Nc1sc(-c2ccc(F)cc2)c(CN2CCN(c3ccc(F)cc3)CC2)c1C(=O)c1ccc(Cl)cc1 | < 12%
Cc1sc(N)c(C(=O)c2ccc(Cl)cc2)c1CN1CCN(c2ccc(Br)cc2)CC1 | < 12%
Nc1sc(-c2ccc(Cl)cc2)c(CN2CCN(c3ccccc3C(F)(F)F)CC2)c1C(=O)c1ccc(Cl)cc1 | < 12%

molecular target: Adenosine receptor A2a (Homo sapiens) (UniProt P29274); assay: Displacement of [3H]ZM241385 from human adenosine A2A receptor expressed in CHO cells at 10 uM after 120 mins by scintillation counting; format: cell-based
Sequence (P29274 whole entry): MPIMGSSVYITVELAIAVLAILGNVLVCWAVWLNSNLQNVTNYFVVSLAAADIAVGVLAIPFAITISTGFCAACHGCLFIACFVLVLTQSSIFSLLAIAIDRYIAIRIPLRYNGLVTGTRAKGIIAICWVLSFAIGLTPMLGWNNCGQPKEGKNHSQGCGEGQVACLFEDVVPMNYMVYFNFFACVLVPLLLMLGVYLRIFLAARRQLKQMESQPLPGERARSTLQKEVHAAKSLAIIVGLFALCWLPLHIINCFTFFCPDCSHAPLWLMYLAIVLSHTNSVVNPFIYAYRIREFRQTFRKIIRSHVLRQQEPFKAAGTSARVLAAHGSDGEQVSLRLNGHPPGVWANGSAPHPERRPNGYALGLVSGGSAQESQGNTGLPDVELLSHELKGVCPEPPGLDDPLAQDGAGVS

SMILES | inhibition
Cc1sc(N)c(C(=O)c2ccc(Cl)cc2)c1CN1CCN(Cc2ccccc2)CC1 | < 12%
Nc1sc(-c2ccccc2)c(CN2CCN(c3ccc(C(F)(F)F)cc3)CC2)c1C(=O)c1ccc(Cl)cc1 | < 12%
Nc1sc(-c2ccc(Cl)cc2)c(CN2CCN(c3ccc(Cl)cc3)CC2)c1C(=O)c1ccc(Cl)cc1 | < 12%
Nc1sc(-c2ccccc2)c(CN2CCN(c3ccc(F)cc3)CC2)c1C(=O)c1ccc(Cl)cc1 | < 12%
Cc1sc(N)c(C(=O)c2ccc(Cl)cc2)c1CN1CCN(c2ccc(Cl)c(C(F)(F)F)c2)CC1 | < 12%
Nc1sc(-c2ccccc2)c(CN2CCN(c3ccccc3C(F)(F)F)CC2)c1C(=O)c1ccc(Cl)cc1 | < 12%
Nc1sc(-c2ccccc2)c(CN2CCN(c3ccc(OC(F)(F)F)cc3)CC2)c1C(=O)c1ccc(Cl)cc1 | < 12%
Cc1sc(N)c(C(=O)c2ccc(Cl)cc2)c1CN1CCN(c2ccc(C(F)(F)F)cc2)CC1 | < 12%
Nc1sc(-c2ccccc2)c(CN2CCN(c3ccc(Cl)c(Cl)c3)CC2)c1C(=O)c1ccc(Cl)cc1 | < 12%
Cc1sc(N)c(C(=O)c2ccc(Cl)cc2)c1CN1CCN(c2cccc(C(F)(F)F)c2)CC1 | < 12%
Nc1sc(-c2ccc(F)cc2)c(CN2CCN(c3ccc(F)cc3)CC2)c1C(=O)c1ccc(Cl)cc1 | < 12%
Cc1sc(N)c(C(=O)c2ccc(Cl)cc2)c1CN1CCN(c2ccc(Br)cc2)CC1 | < 12%
Nc1sc(-c2ccc(Cl)cc2)c(CN2CCN(c3ccccc3C(F)(F)F)CC2)c1C(=O)c1ccc(Cl)cc1 | < 12%

molecular target: T1, Adenosine receptor A1 (Homo sapiens); assay: (§1) Allosteric enhancing activity at human adenosine A1 receptor expressed in CHO cells assessed as inhibition of forskolin-stimulated cAMP accumulation at 10 uM incubated for 10 mins prior to forskolin-stimulation measured after 5 mins by competition protein binding assay; format: functional, cell-based

SMILES | inhibition
Cc1sc(N)c(C(=O)c2ccc(Cl)cc2)c1CN1CCN(Cc2ccccc2)CC1 | 14%
Nc1sc(-c2ccccc2)c(CN2CCN(c3ccc(C(F)(F)F)cc3)CC2)c1C(=O)c1ccc(Cl)cc1 | 72%
Nc1sc(-c2ccc(Cl)cc2)c(CN2CCN(c3ccc(Cl)cc3)CC2)c1C(=O)c1ccc(Cl)cc1 | 85%
Nc1sc(-c2ccccc2)c(CN2CCN(c3ccc(F)cc3)CC2)c1C(=O)c1ccc(Cl)cc1 | 77%
Cc1sc(N)c(C(=O)c2ccc(Cl)cc2)c1CN1CCN(c2ccc(Cl)c(C(F)(F)F)c2)CC1 | 52%
Nc1sc(-c2ccccc2)c(CN2CCN(c3ccccc3C(F)(F)F)CC2)c1C(=O)c1ccc(Cl)cc1 | 62%
Nc1sc(-c2ccccc2)c(CN2CCN(c3ccc(OC(F)(F)F)cc3)CC2)c1C(=O)c1ccc(Cl)cc1 | 67%
Cc1sc(N)c(C(=O)c2ccc(Cl)cc2)c1CN1CCN(c2ccc(C(F)(F)F)cc2)CC1 | 60%
Nc1sc(-c2ccccc2)c(CN2CCN(c3ccc(Cl)c(Cl)c3)CC2)c1C(=O)c1ccc(Cl)cc1 | 55%
Cc1sc(N)c(C(=O)c2ccc(Cl)cc2)c1CN1CCN(c2cccc(C(F)(F)F)c2)CC1 | 51%
Nc1sc(-c2ccc(F)cc2)c(CN2CCN(c3ccc(F)cc3)CC2)c1C(=O)c1ccc(Cl)cc1 | 82%
Cc1sc(N)c(C(=O)c2ccc(Cl)cc2)c1CN1CCN(c2ccc(Br)cc2)CC1 | 49%
Nc1sc(-c2ccc(Cl)cc2)c(CN2CCN(c3ccccc3C(F)(F)F)CC2)c1C(=O)c1ccc(Cl)cc1 | 66%

molecular target: T1, Adenosine receptor A1 (Homo sapiens); assay: Allosteric enhancing activity at human adenosine A1 receptor expressed in CHO cells assessed as increase in [3H]-2-chloro-N6-cyclopentyladenosine Bmax at 10 uM after 90 mins relative to control; format: cell-based

SMILES | fold change (FC)
Cc1sc(N)c(C(=O)c2ccc(Cl)cc2)c1CN1CCN(Cc2ccccc2)CC1 | 1.8
Nc1sc(-c2ccccc2)c(CN2CCN(c3ccc(C(F)(F)F)cc3)CC2)c1C(=O)c1ccc(Cl)cc1 | 10.7
Nc1sc(-c2ccc(Cl)cc2)c(CN2CCN(c3ccc(Cl)cc3)CC2)c1C(=O)c1ccc(Cl)cc1 | 11.4
Nc1sc(-c2ccccc2)c(CN2CCN(c3ccc(F)cc3)CC2)c1C(=O)c1ccc(Cl)cc1 | 11.1
Cc1sc(N)c(C(=O)c2ccc(Cl)cc2)c1CN1CCN(c2ccc(Cl)c(C(F)(F)F)c2)CC1 | 5.1
Nc1sc(-c2ccccc2)c(CN2CCN(c3ccccc3C(F)(F)F)CC2)c1C(=O)c1ccc(Cl)cc1 | 8.2
Nc1sc(-c2ccccc2)c(CN2CCN(c3ccc(OC(F)(F)F)cc3)CC2)c1C(=O)c1ccc(Cl)cc1 | 9.4
Cc1sc(N)c(C(=O)c2ccc(Cl)cc2)c1CN1CCN(c2ccc(C(F)(F)F)cc2)CC1 | 7.6
Nc1sc(-c2ccccc2)c(CN2CCN(c3ccc(Cl)c(Cl)c3)CC2)c1C(=O)c1ccc(Cl)cc1 | 6.8
Cc1sc(N)c(C(=O)c2ccc(Cl)cc2)c1CN1CCN(c2cccc(C(F)(F)F)c2)CC1 | 6.2
Nc1sc(-c2ccc(F)cc2)c(CN2CCN(c3ccc(F)cc3)CC2)c1C(=O)c1ccc(Cl)cc1 | 11.7
Cc1sc(N)c(C(=O)c2ccc(Cl)cc2)c1CN1CCN(c2ccc(Br)cc2)CC1 | 4.9
Nc1sc(-c2ccc(Cl)cc2)c(CN2CCN(c3ccccc3C(F)(F)F)CC2)c1C(=O)c1ccc(Cl)cc1 | 8.1

molecular target: T1, Adenosine receptor A1 (Homo sapiens); assay: Allosteric enhancing activity at human adenosine A1 receptor expressed in CHO cells assessed as increase in CCPA-induced [3H]DPCPX displacement at 10 uM after 90 mins relative to control; format: cell-based

SMILES | Ratio Ki
Cc1sc(N)c(C(=O)c2ccc(Cl)cc2)c1CN1CCN(Cc2ccccc2)CC1 | 1.4
Nc1sc(-c2ccccc2)c(CN2CCN(c3ccc(C(F)(F)F)cc3)CC2)c1C(=O)c1ccc(Cl)cc1 | 8.9
Nc1sc(-c2ccc(Cl)cc2)c(CN2CCN(c3ccc(Cl)cc3)CC2)c1C(=O)c1ccc(Cl)cc1 | 8.7
Nc1sc(-c2ccccc2)c(CN2CCN(c3ccc(F)cc3)CC2)c1C(=O)c1ccc(Cl)cc1 | 9.4
Cc1sc(N)c(C(=O)c2ccc(Cl)cc2)c1CN1CCN(c2ccc(Cl)c(C(F)(F)F)c2)CC1 | 4.6
Nc1sc(-c2ccccc2)c(CN2CCN(c3ccccc3C(F)(F)F)CC2)c1C(=O)c1ccc(Cl)cc1 | 7.6
Nc1sc(-c2ccccc2)c(CN2CCN(c3ccc(OC(F)(F)F)cc3)CC2)c1C(=O)c1ccc(Cl)cc1 | 8.4
Cc1sc(N)c(C(=O)c2ccc(Cl)cc2)c1CN1CCN(c2ccc(C(F)(F)F)cc2)CC1 | 6.8
Nc1sc(-c2ccccc2)c(CN2CCN(c3ccc(Cl)c(Cl)c3)CC2)c1C(=O)c1ccc(Cl)cc1 | 3
Cc1sc(N)c(C(=O)c2ccc(Cl)cc2)c1CN1CCN(c2cccc(C(F)(F)F)c2)CC1 | 5.7
Nc1sc(-c2ccc(F)cc2)c(CN2CCN(c3ccc(F)cc3)CC2)c1C(=O)c1ccc(Cl)cc1 | 9.5
Cc1sc(N)c(C(=O)c2ccc(Cl)cc2)c1CN1CCN(c2ccc(Br)cc2)CC1 | 4.5
Nc1sc(-c2ccc(Cl)cc2)c(CN2CCN(c3ccccc3C(F)(F)F)CC2)c1C(=O)c1ccc(Cl)cc1 | 7.2

molecular target: T1, Adenosine receptor A1 (Homo sapiens); assay: as §1, with “100 nM” for “10 uM”, “assay in presence of 2-chloro-N6-cyclopentyladenosine” for “assay”; format: functional, cell-based

SMILES | inhibition
Cc1sc(N)c(C(=O)c2ccc(Cl)cc2)c1CN1CCN(Cc2ccccc2)CC1 | 19%
Nc1sc(-c2ccccc2)c(CN2CCN(c3ccc(C(F)(F)F)cc3)CC2)c1C(=O)c1ccc(Cl)cc1 | 73%
Nc1sc(-c2ccc(Cl)cc2)c(CN2CCN(c3ccc(Cl)cc3)CC2)c1C(=O)c1ccc(Cl)cc1 | 71%
Nc1sc(-c2ccccc2)c(CN2CCN(c3ccc(F)cc3)CC2)c1C(=O)c1ccc(Cl)cc1 | 71%
Cc1sc(N)c(C(=O)c2ccc(Cl)cc2)c1CN1CCN(c2ccc(Cl)c(C(F)(F)F)c2)CC1 | 48%
Nc1sc(-c2ccccc2)c(CN2CCN(c3ccccc3C(F)(F)F)CC2)c1C(=O)c1ccc(Cl)cc1 | 66%
Nc1sc(-c2ccccc2)c(CN2CCN(c3ccc(OC(F)(F)F)cc3)CC2)c1C(=O)c1ccc(Cl)cc1 | 69%
Cc1sc(N)c(C(=O)c2ccc(Cl)cc2)c1CN1CCN(c2ccc(C(F)(F)F)cc2)CC1 | 61%
Nc1sc(-c2ccccc2)c(CN2CCN(c3ccc(Cl)c(Cl)c3)CC2)c1C(=O)c1ccc(Cl)cc1 | 56%
Cc1sc(N)c(C(=O)c2ccc(Cl)cc2)c1CN1CCN(c2cccc(C(F)(F)F)c2)CC1 | 52%
Nc1sc(-c2ccc(F)cc2)c(CN2CCN(c3ccc(F)cc3)CC2)c1C(=O)c1ccc(Cl)cc1 | 77%
Cc1sc(N)c(C(=O)c2ccc(Cl)cc2)c1CN1CCN(c2ccc(Br)cc2)CC1 | 46%
Nc1sc(-c2ccc(Cl)cc2)c(CN2CCN(c3ccccc3C(F)(F)F)CC2)c1C(=O)c1ccc(Cl)cc1 | 62%
